Calls of active or inactive are those of the source. The rule behind the calls is not given here.

The target of the first assay is T1, Inosine-5'-monophosphate dehydrogenase 2 (Homo sapiens, UniProt P12268). Nature of the assay: Inhibition of IMPDH2.
Usually IC50 stands for the concentration at which inhibition is half-maximal. Read a high IC50 as weaker potency. The compound `Nc1ccc2c(-c3ccncc3)c[nH]c2c1` displayed an IC50 of 0.637 µM.
In turn, `c1ccc2c(-c3ccncc3)c[nH]c2c1` registered a half-inhibitory concentration (IC50) of 1.15 µM.
Same read-out and setting: then `Cn1cc(C=O)c2ccccc21`, with 6.84 µM; and `O=Cc1c[nH]c2ccccc12` [3-FORMYLINDOLE], with 22.7 µM.
On the same count and under the same terms, in the case of `Brc1ccc2c(-c3ccncc3)c[nH]c2c1` it was 0.408 µM.
Still for that read-out and setting: then `COc1cc(N)ccc1-c1cnco1`, with 8.2 µM; and `Nc1ccc2c(-c3cncs3)c[nH]c2c1`, with 27.9 µM; and `Cn1cc(C#N)c2ccccc21`, with 7.66 µM.
For `N#Cc1c[nH]c2ccccc12`, half-maximal inhibition (IC50) was put at 20.9 µM.
On to `Nc1cccc2c(-c3ccncc3)c[nH]c12`, for which the midpoint of inhibition, the IC50, lay at 0.524 µM.
In turn, `Cc1[nH]c2cc(N)ccc2c1-c1ccncc1` yielded an IC50 of 0.419 µM.
Same read-out and setting: then `Cc1[nH]c2ccccc2c1-c1ccncc1`, with 0.343 µM; and `Nc1ccc2c(-c3ccsc3)c[nH]c2c1`, with 2.32 µM.
Consider `Cn1cc(-c2ccoc2)c2ccccc21`, for which it took 6.21 µM to reach half-maximal inhibition (IC50).
The same measure, in the same setting: then `c1ccc2c(-c3ccoc3)c[nH]c2c1`, with 5.84 µM.

In the next assay the target is T1, Inosine-5'-monophosphate dehydrogenase 2. Nature of the assay: Inhibition of IMPDH2 at 50 uM.
As a reminder, the inhibition is the change of the read-out against control, counted positive when it falls. As to `Cn1cc(-c2ccncc2)c2ccc(Br)cc21`, the inhibition stood at 62%.
Same read-out and setting: then `Cn1cc(C(N)=O)c2ccccc21`, with 50%; and `NC(=O)c1c[nH]c2ccccc12`, with “inactive”; and `Cc1cc(-c2c[nH]c3cc(N)ccc23)ccn1`, with “inactive”.
Same read-out and setting: then `c1cncc(-c2c[nH]c3ccccc23)c1`, with “inactive”.

(Values after ChEMBL document CHEMBL1147020, “Low molecular weight indole fragments as IMPDH inhibitors” (Bioorg Med Chem Lett, 2006).)
